The text below walks through data of patent US8580794B2 (AbbVie Inc., priority 2009, dated 2013).

Where two headings read alike, the source gives them in different places. Bounds are passed on as bounds.

The target in the experiment is GST-Bc1-2 (Homo sapiens, UniProt P10415). As to the kind of experiment: Time Resolved-Fluorescence Resonance Energy Transfer (TR-FRET) Bcl-2 binding assay with F-Bak peptide probe. (In general: In TR-FRET formats the signal depends on donor and acceptor labels being close together.)
GST-Bc1-2, sequence (P10415 whole entry): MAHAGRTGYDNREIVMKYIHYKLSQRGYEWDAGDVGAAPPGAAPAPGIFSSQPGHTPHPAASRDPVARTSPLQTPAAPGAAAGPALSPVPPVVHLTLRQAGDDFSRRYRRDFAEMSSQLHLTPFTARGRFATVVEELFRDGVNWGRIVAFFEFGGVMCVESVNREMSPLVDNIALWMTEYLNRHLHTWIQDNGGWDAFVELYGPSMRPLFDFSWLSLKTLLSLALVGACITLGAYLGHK
Setting [1] is: GST-Bcl-2 1 nM, F-Bak probe 100 nM, Tb-anti-GST 1 nM, '<' = below limit of detection, read-out: TR-FRET Bcl-2 Binding Ki.
Setting [2] is: Table 5, direct comparison Z=N vs Z=C analogs, read-out: Bcl-2 FRET ki.

Method: The samples are then mixed on a shaker for 1 minute and incubated for an additional 3 hours at room temperature. For each assay, the probe/antibody and protein/probe/antibody were included on each assay plate as negative and positive controls, respectively.
The samples were then mixed on a shaker for 1 minute and incubated for an additional 3 hours at room temperature. For each assay, the probe/antibody and protein/probe/antibody were included on each assay plate as negative and positive controls, respectively.

For `CC1(C)CCC(CN2CCN(c3ccc(C(=O)NS(=O)(=O)c4ccc(NC5CCN([C@H]6CCOC[C@H]6F)CC5)c([N+](=O)[O-])c4)c(Oc4cnc5[nH]ccc5c4)c3)CC2)=C(c2ccc(Cl)cc2)C1` (relative stereo) [Example 115, 4-(4-{[2-(4-chlorophenyl)-4,4-dimethylcyclohex-1-en-1-yl]methyl}piperazin-1-yl)-N-{[4-({1-[cis-3-fluorotetrahydro-2H-pyran-4-yl]piperidin-4-yl}amino)-3-nitrophenyl]sulfonyl}-2-(1H-pyrrolo[2,3-b]pyridin-5-yloxy)benzamide], under setting [1], the Ki is < 10 pM.

Regarding `CC1(C)CCC(CN2CCN(c3ccc(C(=O)NS(=O)(=O)c4ccc(OC[C@@H]5CN(C6COC6)C[C@H]5CF)c([N+](=O)[O-])c4)c(Oc4cnc5[nH]ccc5c4)c3)CC2)=C(c2ccc(Cl)cc2)C1` (relative stereo) [Example 137, 4-(4-{[2-(4-chlorophenyl)-4,4-dimethylcyclohex-1-en-1-yl]methyl}piperazin-1-yl)-N-[(4-{[trans-4-(fluoromethyl)-1-oxetan-3-ylpyrrolidin-3-yl]methoxy}-3-nitrophenyl)sulfonyl]-2-(1H-pyrrolo[2,3-b]pyridin-5-yloxy)benzamide], under setting [1], the Ki is < 10 pM.

Turning to `O=C(NS(=O)(=O)c1ccc(NCC2CCOCC2)c([N+](=O)[O-])c1)c1ccc(N2CCN(Cc3ccccc3-c3ccc(Cl)cc3)CC2)cc1Oc1cnc2[nH]ccc2c1` [Example 1, 4-{4-[(4′-chloro-1,1′-biphenyl-2-yl)methyl]piperazin-1-yl}-N-({3-nitro-4-[(tetrahydro-2H-pyran-4-ylmethyl)amino]phenyl}sulfonyl)-2-(1H-pyrrolo[2,3-b]pyridin-5-yloxy)benzamide], the Ki under setting [1] amounted to 225 pM and the Ki under setting [2] was found to be 225 pM.

Turning to `O=C(NS(=O)(=O)c1ccc(NCCCN2CCOCC2)c([N+](=O)[O-])c1)c1ccc(N2CCN(Cc3ccccc3-c3ccc(Cl)cc3)CC2)cc1Oc1cnc2[nH]ccc2c1` [Example 2, 4-{4-[(4′-chloro-1,1′-biphenyl-2-yl)methyl]piperazin-1-yl}-N-({4-[(3-morpholin-4-ylpropyl)amino]-3-nitrophenyl}sulfonyl)-2-(1H-pyrrolo[2,3-b]pyridin-5-yloxy)benzamide], the Ki is < 10 pM under setting [1] and < 10 pM under setting [2].

On to `CC1(C)CCC(CN2CCN(c3ccc(C(=O)NS(=O)(=O)c4ccc(NC5CCN(C6CCOCC6)CC5)c([N+](=O)[O-])c4)c(Oc4cnc5[nH]ccc5c4)c3)CC2)=C(c2ccc(Cl)cc2)C1` [Example 3, 4-(4-{[2-(4-chlorophenyl)-4,4-dimethylcyclohex-1-en-1-yl]methyl}piperazin-1-yl)-N-({3-nitro-4-[(1-tetrahydro-2H-pyran-4-ylpiperidin-4-yl)amino]phenyl}sulfonyl)-2-(1H-pyrrolo[2,3-b]pyridin-5-yloxy)benzamide], for which the Ki runs as follows: under setting [1], 13 pM; under setting [2], 13 pM.

As to `CN1CCC(Nc2ccc(S(=O)(=O)NC(=O)c3ccc(N4CCN(CC5=C(c6ccc(Cl)cc6)CC(C)(C)CC5)CC4)cc3Oc3cccc4[nH]c5ccccc5c34)cc2[N+](=O)[O-])CC1` [Example 7, 2-(9H-carbazol-4-yloxy)-4-(4-{[2-(4-chlorophenyl)-4,4-dimethylcyclohex-1-en-1-yl]methyl}piperazin-1-yl)-N-({4-[(1-methylpiperidin-4-yl)amino]-3-nitrophenyl}sulfonyl)benzamide], the Ki under setting [1] turned out to be 4920 pM.

In the case of `CC1(C)CCC(CN2CCN(c3ccc(C(=O)NS(=O)(=O)c4ccc(NCCCN5CCCC5)c([N+](=O)[O-])c4)c(Oc4cccc5[nH]c6ccccc6c45)c3)CC2)=C(c2ccc(Cl)cc2)C1` [Example 8, 2-(9H-carbazol-4-yloxy)-4-(4-{[2-(4-chlorophenyl)-4,4-dimethylcyclohex-1-en-1-yl]methyl}piperazin-1-yl)-N-({3-nitro-4-[(3-pyrrolidin-1-ylpropyl)amino]phenyl}sulfonyl)benzamide], the Ki under setting [1] was 153 pM.

With `CC1(C)CCC(CN2CCN(c3ccc(C(=O)NS(=O)(=O)c4ccc(NC[C@@H]5CCCOC5)c([N+](=O)[O-])c4)c(Oc4cnc5[nH]ccc5c4)c3)CC2)=C(c2ccc(Cl)cc2)C1` [Example 11, 4-(4-{[2-(4-chlorophenyl)-4,4-dimethylcyclohex-1-en-1-yl]methyl}piperazin-1-yl)-N-[(3-nitro-4-{[(3S)-tetrahydro-2H-pyran-3-ylmethyl]amino}phenyl)sulfonyl]-2-(1H-pyrrolo[2,3-b]pyridin-5-yloxy)benzamide], the Ki is, setting by setting: under setting [1], 16 pM; under setting [2], 16 pM.

On to `CC1(C)CCC(CN2CCN(c3ccc(C(=O)NS(=O)(=O)c4ccc5ccccc5c4)c(Oc4cnc5[nH]ccc5c4)c3)CC2)=C(c2ccc(Cl)cc2)C1` [Example 14, 4-(4-{[2-(4-chlorophenyl)-4,4-dimethylcyclohex-1-en-1-yl]methyl}piperazin-1-yl)-N-(2-naphthylsulfonyl)-2-(1H-pyrrolo[2,3-b]pyridin-5-yloxy)benzamide], for which the Ki under setting [1] turned out to be 2800 pM.

Turning to `COCCNc1ccc(S(=O)(=O)NC(=O)c2ccc(N3CCN(CC4=C(c5ccc(Cl)cc5)CC(C)(C)CC4)CC3)cc2Oc2cnc3[nH]ccc3c2)cc1S(=O)(=O)C(F)(F)F` [Example 16, 4-(4-{[2-(4-chlorophenyl)-4,4-dimethylcyclohex-1-en-1-yl]methyl}piperazin-1-yl)-N-({4-[(2-methoxyethyl)amino]-3-[(trifluoromethyl)sulfonyl]phenyl}sulfonyl)-2-(1H-pyrrolo[2,3-b]pyridin-5-yloxy)benzamide], the Ki under setting [1] turned out to be 219 pM and the Ki under setting [2] came to 219 pM.

For `CC1(C)CCC(CN2CCN(c3ccc(C(=O)NS(=O)(=O)c4ccc(NCC5CCOCC5)c(S(=O)(=O)C(F)(F)F)c4)c(Oc4cnc5[nH]ccc5c4)c3)CC2)=C(c2ccc(Cl)cc2)C1` [Example 17, 4-(4-{[2-(4-chlorophenyl)-4,4-dimethylcyclohex-1-en-1-yl]methyl}piperazin-1-yl)-2-(1H-pyrrolo[2,3-b]pyridin-5-yloxy)-N-({4-[(tetrahydro-2H-pyran-4-ylmethyl)amino]-3-[(trifluoromethyl)sulfonyl]phenyl}sulfonyl)benzamide], the inhibition constant Ki under setting [1] came to 90 pM and the Ki under setting [2] is 90 pM.

Regarding `CC1(C)CCC(CN2CCN(c3ccc(C(=O)NS(=O)(=O)c4ccc(NCC5CCOCC5)c([N+](=O)[O-])c4)c(Oc4ccc5[nH]ccc5c4)c3)CC2)=C(c2ccc(Cl)cc2)C1` [Example 18, 4-(4-{[2-(4-chlorophenyl)-4,4-dimethylcyclohex-1-en-1-yl]methyl}piperazin-1-yl)-2-(1H-indol-5-yloxy)-N-({3-nitro-4-[(tetrahydro-2H-pyran-4-ylmethyl)amino]phenyl}sulfonyl)benzamide], the inhibition constant (Ki) by setting is: under setting [1], 17 pM; under setting [2], 17 pM.

Turning to `CC1(C)CCC(CN2CCN(c3ccc(C(=O)NS(=O)(=O)c4ccc(N[C@H]5CC[C@H](N6CCOCC6)CC5)c([N+](=O)[O-])c4)c(Oc4ccc5[nH]ccc5c4)c3)CC2)=C(c2ccc(Cl)cc2)C1` [Example 19, Trans-4-(4-{[2-(4-chlorophenyl)-4,4-dimethylcyclohex-1-en-1-yl]methyl}piperazin-1-yl)-2-(1H-indol-5-yloxy)-N-({4-[(4-morpholin-4-ylcyclohexyl)amino]-3-nitrophenyl}sulfonyl)benzamide], the Ki is 226 pM under setting [1]; 226 pM (Table 4, selected compounds of Ser. No. 12/631,404, read-out: Bcl-2 FRET Ki); 226 pM under setting [2].

The term Ki denotes the dissociation constant of the complex between target and ligand, obtained from inhibition or displacement.
